Assay [1] relates to TNF-α production by LPS stimulated mouse peritoneal macrophages. As to the kind of experiment: TNF-α production inhibitory activity by LPS stimulated macrophages (ELISA). The class given is cell-based. The following applies: Peritoneal macrophage, LPS 10 μg/ml, 8 hours. How it is done:
(1) Method of Measurement of TNF-α Production Inhibitory Activity by LPS Stimulated Macrophages
The following assay was used to evaluate the ability of the compound of the present invention to suppress TNF-α production by LPS stimulated macrophages according to Immuno pharmacol. 29, 121-127 (1995).
1) 6 to 10 week old female BALB/c mice were used, 2 ml portions of thioglycolate were intraperitoneally administered, and the abdominal cavities were washed by 10 ml of PBS after 4 days, whereby 1 to 2×10^7 peritoneal cells were obtained per mouse. These were suspended in a hemocyte solution (0.75% ammonium chloride, 17 mM tris-hydrochlorate buffer, pH7.2), centrifuged, then resuspended in an RPMI1640 medium including 10% fetal calf serum and seeded in a 96-well cell culture plate at a density of 1×10^5 cells/50 μl/well. Since these cells adhered strongly to the tissue culture plate and were positive in nonspecific esterase staining, they were used for the test as mouse peritoneal macrophages. Mouse peritoneal macrophages were precultured overnight at 37° C. in 5% CO2 for the experiment.
2) E. Coli (serum type 055:B5) derived LPS was dissolved in PBS in a concentration of 1 mg/ml, then sterilized by filtration. The test compound was dissolved in DMSO to make a 1000-fold concentration solution of the final concentration of use. 10 μl of the above LPS stock solution (final concentration 10 μg/ml) and 1 μl of the tested substance stock solution were added and mixed in 0.5 ml of RPMI1640 medium containing 10% fetal calf serum. This was added to the above cells at 50 μl/well and cultured for 8 hours. The cultured supernatant was recovered from each well and the TNF-α concentration was measured by the ELISA method (Cytoscreen® Immunoassay Kit Mouse TNF-α, BioSource International).

Assay [2] has as its system type IV phosphodiesterase. Kind of assay: Type IV phosphodiesterase inhibiting activity (3H-cAMP hydrolysis, PDE IV fraction from U937 cells). The class given is biochemical. The following applies: PDE IV fraction from human U937 cells, 30° C., 30 minutes. How it is done: (1) Method of Measurement of Type IV Phosphodiesterase Inhibiting Activity
The following assay was used to evaluate the ability of the compound of the present invention to suppress type IV phosphodiesterase, according to Biochemical.
1) Type IV phosphodiesterase activity fractions were prepared as follows. Human histiocytic lymphoma cell line U937 was cultured in an RPMI1640 medium containing 10% fetal calf serum to obtain 10^9 cells of U937. The cells were recovered by centrifugation and suspended in 40 ml of buffer A (20 mM bis-tris, 5 mM 2-mercaptoethanol, 2 mM benzamidine, 2 mM EDTA, 0.1 mM 4-(2-aminoethyl)benzensulfonyl hydrochloride, 50 mM sodium acetate, pH=6.5). The cells were broken by a sonication and centrifuged (4° C., 10,000G, 10 minutes) to obtain a supernatent. This was filtered by a 0.45 μm filter to obtain the soluble fraction.
The soluble fraction obtained was applied into a 1×10 cm DEAE Sepharose column equalibrated with the buffer A. 120 ml of the buffer A containing a linear gradient solution of 0.05 to 1 M sodium acetate was used to separate the phosphodiesterase and recover 24 5-ml fractions. Each of the fractions was measured for the cAMP phosphodiesterase activity.
2) The test compound was reacted at a desired concentration in a reaction mixture containing 20 mM tris-HCl (pH 7.5), 1 mM MgCl2, 100 μM EDTA, 330 μg/ml calf serum albumin, 10 μg/ml 5′-nucleotidase, 0.4 μCi ^3H-cAMP ([…] cAMP) and the type IV phosphodiesterase stored solution at 30° C. for 30 minutes. QAE-Sephadex suspended in 10 mM of hepes-Na (pH-7.0) was added to the reaction mixture which was then allowed to stand for 5 minutes, then the supernatant was obtained, QAE-Sephadex was further added, to the supernatant, and was allowed to stand for 5 minutes, then the supernatant was obtained and measured for radioactivity.

Take `O=C(NCc1ccncc1)c1cn(-c2ccc(F)cc2)c2ncccc2c1=O` [Example 64, 1-(4-Fluorophenyl)-N-(4-pyridyl)methyl-1,4-dihydro[1,8]naphthylidin-4-one-3-carbdxamide]: the IC50 (commonly the midpoint of a concentration-inhibition curve) in assay [1] is 100 nM; in assay [2], 120 nM.
For `O=C(NCCc1ccccc1)c1cn(-c2ccc(F)cc2)c2ncccc2c1=O` [Example 65, 1-(4-Fluorophenyl)-N-(2-phenylethyl)-1,4-dihydro[1,8]naphthylidin-4-one-3-carboxamide] the same measures were 600 nM and 270 nM.
Take `O=C(Nc1ccccc1)c1cn(-c2ccc(F)cc2)c2ncccc2c1=O` [Example 67, N-phenyl-1-(4-fluorophenyl)-1,4-dihydro[1,8]naphthylidin-4-one-3-carboxamide]: the IC50 in assay [1] was determined as 700 nM; in assay [2], 60 nM.
`Cc1ccccc1NC(=O)c1cn(-c2ccc(F)cc2)c2ncccc2c1=O` [Example 69, 1-(4-Fluorophenyl)-N-(2-tolyl)-1,4-dihydro[1,8]naphthylidin-4-one-3-carboxamide]: the IC50 was determined as 100 nM in assay [1] and 13 nM in assay [2].
The like results for `Cc1cccc(NC(=O)c2cn(-c3ccc(F)cc3)c3ncccc3c2=O)c1` [Example 70, 1-(4-Fluororhenyl)-N-(3-tolyl)-1,4-dihydro[1,8]naohthylidin-4-one-3-carboxamide] were, in that order, 1000 nM and 610 nM.
For `Cc1cccc(C)c1NC(=O)c1cn(-c2ccc(F)cc2)c2ncccc2c1=O` [Example 72, 1-(4-Fluorophenyl)-N-(2,6-xylidyl)-1,4-dihydro[1,8]naphthylidin-4-one-3-carboxamide] the same measures were 10 nM and 180 nM.
The like results for `O=C(Nc1ccccc1O)c1cn(-c2ccc(F)cc2)c2ncccc2c1=O` [Example 73, 1-(4-Fluorophenyl)-N-(2-hydroxyphenuyl)-1,4-dihydro[1,8]naphthylidin-4-one-3-carboxamide] were, in that order, 1000 nM and 810 nM.
Consider `O=C(Nc1cccc(O)c1)c1cn(-c2ccc(F)cc2)c2ncccc2c1=O` [Example 74, 1-(4-Fluorophenyl)-N-(3-hydroxythenyl)-1,4-dihydro[1,8]naphthylidin-4-one-3-carboxamide], for which the IC50 was 400 nM in assay [1] and 420 nM in assay [2].
Take `O=C(Nc1ccc(O)cc1)c1cn(-c2ccc(F)cc2)c2ncccc2c1=O` [Example 75, 1-(4-Fluorophenyl)-N-(4-hydroxyhenyl)-1,4-dihydro[1,8]naphthylidin-4-one-3-arboxamide]: the IC50 in assay [1] stood at 200 nM; in assay [2], 100 nM.
With `COc1cccc(NC(=O)c2cn(-c3ccc(F)cc3)c3ncccc3c2=O)c1` [Example 77, 1-(4-Fluorophenyl)-N-(3-methoxyphenyl)-1,4-dihydro[1,8]naphthylidin-4-one-3-carboxamide], the IC50 was 100 nM in assay [1] and 180 nM in assay [2].
The like results for `O=C(Nc1cccc(CO)c1)c1cn(-c2ccc(F)cc2)c2ncccc2c1=O` [Example 79, 1-(4-fluorophenyl)-N-(3-hydroxymethylphenyl)-1,4-dihydro[1,8]naohthylidin-4-one-3-carboxamide] were, in that order, 300 nM and 55 nM.
As for `CC(=O)c1ccccc1NC(=O)c1cn(-c2ccc(F)cc2)c2ncccc2c1=O` [Example 80, N-(2-acetophenyl)-1-(4-fluorophenyl)-1,4-dihydro[1,8]naphthylidin-4-one-3-carboxamide], the IC50 in assay [1] is 100 nM; in assay [2], 110 nM.
Regarding `CC(=O)c1cccc(NC(=O)c2cn(-c3ccc(F)cc3)c3ncccc3c2=O)c1` [Example 81, N-(3-acetophenyl)-1-(4-fluorophenyl)-1,4-dihydro[1,8]naphthylidin-4-one-3-carboxamide], the figures for the concentration for half-maximal inhibition (IC50) in assay [1] and in assay [2] were 500 nM and 110 nM, respectively.
Consider `O=C(O)c1cccc(NC(=O)c2cn(-c3ccc(F)cc3)c3ncccc3c2=O)c1` [Example 86, 3-[{[1-(4-Fluorophenyl)-1,4-dihydro[1,8]naohthylidin-4-one-3-yl]carbonyl}amino]benzoic Acid], for which the IC50 in assay [1] came out at 400 nM; in assay [2], 32 nM.
Turning to `NC(=O)c1cccc(NC(=O)c2cn(-c3ccc(F)cc3)c3ncccc3c2=O)c1` [Example 87, N-[3-(aminocarbonyl)phenyl]-1-(4-fluorophenyl)-1,4-dihydro[1,8]naphthylidin-4-one-3-carboxamide], the IC50 was determined as 200 nM in assay [1] and 72 nM in assay [2].
In the case of `Nc1ccccc1NC(=O)c1cn(-c2ccc(F)cc2)c2ncccc2c1=O` [Example 90, N-(2-aminophenyl)-1-(4-fluorophenyl)-1,4-dihydro[1,8]naphthylidin-4-one-3-carboxamide], the results for the IC50 in assay [1] and in assay [2] were 500 nM and 96 nM, respectively.
Take `Nc1cccc(NC(=O)c2cn(-c3ccc(F)cc3)c3ncccc3c2=O)c1` [Example 91, N-(3-aminophenyl)-1-(4-fluorophenyl)-1,4-dihydro[1,8]naphthylidin-4-one-3-carboxamide]: the IC50 in assay [1] was 100 nM; in assay [2] it was 52 nM.
Take `Nc1ccc(NC(=O)c2cn(-c3ccc(F)cc3)c3ncccc3c2=O)cc1` [Example 92, N-(4-aminophenyl)-1-(4-fluorophenyl)-1,4-dihydro[1,8]naphthylidin-4-one-3-carboxamide]: the IC50 in assay [1] was determined as 200 nM; in assay [2], 140 nM.
For the molecule `O=C(Nc1ccccc1[N+](=O)[O-])c1cn(-c2ccc(F)cc2)c2ncccc2c1=O` [Example 93, 1-(4-fluorophenyl)-N-(2-nitrophenyl)-1,4-dihydro[1,8]naohthylidin-4-one-3-carboxamide], the IC50 in assay [1] worked out at 30 nM; in assay [2] it was 16 nM.
For the molecule `O=C(Nc1cccc([N+](=O)[O-])c1)c1cn(-c2ccc(F)cc2)c2ncccc2c1=O` [Example 94, 1-(4-Fluorophenyl)-N-(3-nitrophenyl)-1,4-dihydro[1,8]naphthylidin-4-one-3-carboxamide], the IC50 in assay [1] amounted to 500 nM; in assay [2], 350 nM.
With `O=C(Nc1ccc(F)cc1)c1cn(-c2ccc(F)cc2)c2ncccc2c1=O` [Example 98, 1,N-bis-(4-fluorophenyl)-1,4-dihydro[1,8]naphthylidin-4-one-3-carboxamide], the figures for the IC50 in assay [1] and in assay [2] were 1000 nM and 160 nM, respectively.
On to `Cc1cnccc1NC(=O)c1cn(-c2ccc(F)cc2)c2ncccc2c1=O` [Example 104, 1-(4-Fluorophenyl)-N-(3-methylpyridin-4-yl)-1,4-dihydro[1,8]naphthylidin-4-one-3-carboxamide], for which the half-inhibitory concentration (IC50) came to 0.3 nM in assay [1] and 19 nM in assay [2].
On to `O=C(Nc1cccnc1Cl)c1cn(-c2ccc(F)cc2)c2ncccc2c1=O` [Example 105, N-(2-Chloropyridin-3-yl)-1-(4-fluorophenyl)-1,4-dihydro[1,8]naphthylidin-4-one-3-carboxamide], for which the results for the half-maximal inhibitory concentration (IC50) in assay [1] and in assay [2] were 400 nM and 85 nM, respectively.
Take `O=C(Nc1ccncn1)c1cn(-c2ccc(F)cc2)c2ncccc2c1=O` [Example 107, 1-(4-Fluorophenyl)-N-(4-pyrimidyl)-1,4-dihydro[1,8]naphthylidin-4-one-3-carboxamide]: the results for the IC50 in assay [1] and in assay [2] were 1000 nM and 520 nM, respectively.
Turning to `O=C(Nc1c(Cl)ncnc1Cl)c1cn(-c2ccc(F)cc2)c2ncccc2c1=O` [Example 108, 1-(4-Fluorophenyl)-N-(4,6-dichloropyrimidine-5-yl)-1,4-dihydro[1,8]naphthylidin-4-one-3-carboxamide], the 50% inhibitory concentration (IC50) in assay [1] amounted to 1000 nM; in assay [2], 4.6 nM.

The values above are taken from patent US6541480B2, “1-aryl-1,8-naphthylidin-4-one derivative as type IV phosphodiesterase inhibitor” (Suntory Limited, priority 1997, dated 2003).
